In this test the test system is Tsc2^c/c mice injected ICV with AAV1-CBA-Cre. Briefly: Survival of Tsc2^c/c mice lacking tuberin (AAV1-CBA-Cre ICV) after treatment. The following applies: AAV1-CBA-Cre ICV at P0; no cTuberin vector; vigabatrin 200 mg/kg. Format: in vivo. As to the method:
Experimental research protocols were approved by the Institutional Animal Care and Use Committee (IACUC) for the Massachusetts General Hospital (MGH) following the guidelines of the National Institutes of Health for the Care and Use of Laboratory Animals. Experiments were performed on Tsc2^c/c floxed mice (Onda et al., J. Clin. Invest. 104(6):687-695, 1999). In response to Cre recombinase, the Tsc2^c/c alleles are converted to null alleles, and the lacZallele expresses β-galactosidase. These mice have a normal, healthy lifespan.
For vector injections, on the day of birth (postnatal day 0 (P0)) or on P3, neonates were cryo-anesthetized and injected with 1 μl or 2 μl of viral vector AAV1-CBA-Cre into each cerebral lateral ventricle with a glass micropipette ([…] diameter at the tip) using a Narishige® IM300 microinjector at a rate of 2.4 psi/sec (Narshige International, East Meadow, NY). Mice were then placed on a warming pad and returned to their mothers after regaining normal color and full activity typical of newborn mice.
At 3 weeks of age (P21) mice were anesthetized by isoflurane inhalation (3.5% isoflurane in an induction chamber, then maintained anesthetized with 2-3% isoflurane and 1-2 liter/min oxygen for the duration of the experiment). […]

The source of these data is US11958887B2, “Gene therapy for tuberous sclerosis” (The General Hospital Corporation, priority 2017, dated 2024).

Each structure is given as a SMILES string.

Compound `C=CC(N)CCC(=O)O` (stereo not shown) [vigabatrin] had a median survival of 27 days.
